Source: patent publication US5914348A, “Substance FA-70D, process for producing the same, and uses thereof” (Taiho Pharmaceutical Co., Ltd., priority 1996, dated 1999)
Numbered stars: 1 amine (or outer) side, 2 acyl side, 3 side chain; on linkers, the order of the positions; unused ones are H or OH. Square brackets hold non-standard residues; d marks the D form. Peptide text beside a SMILES is read from it. Cit = NC(=O)NCCC[CH](N)C(=O)O; Phe(ol) = N[CH](CO)Cc1ccccc1; CO = O=C([*:1])[*:2]

Key:
[1] = target: cathepsin B (Homo sapiens, UniProt P07858); assay: Inhibitory activity against cathepsin B (fluorescence, carbobenzoxy-L-phenylalanyl-L-arginine-4-methylcoumaryl-7-amide substrate); type: biochemical; conditions: pH 6.0, 40° C., read-out: Enzyme inhibitory activity (%)
Experimental: (§1) The inhibitory activity against cathepsin L or cathepsin B was assayed by the method of A. J. Barrett et al. [Biochemical Journal, 201, 189-198, 1982]. The chymotrypsin- or trypsin-hibitory activity was assayed in accordance with the methods described in Tsuru, D. and Funatsu, M. (ed.), Seikagaku Jikkenho-Tanpakushitsu Bunkai Koso II [Methods of Biochemistry, Proteolytic Enzymes II], vol. 31, 7-14, 1993.
(§2) The method for assay of inhibitory activity against cathepsin B is as follows. Thus, 0.5 ml of 400 mM sodium phosphate buffer (pH 6.0) containing 8 mM dithiothreitol and 4 mM tetrasodium ethylenediaminetetracetate, 0.8 ml of an enzyme solution containing 5 μM cathepsin B and 0.1% Brij 35 (Wako Pure Chemical Ind.), and 0.2 ml of an aqueous solution of the compound of the invention were preincubated at 40° C. for 10 minutes. […] The intensity of fluorescence (F) was determined at an exciting wavelength of 350 nm and an emission wavelength of 458 nm. As a control, 0.2 ml of water was added in lieu of 0.2 ml of said aqueous solution of the compound of the invention and the intensity of fluorescence (F0) at 458 nm was similarly measured. The enzyme inhibitory activity was calculated by means of the following formula. […]

[2] = target: cathepsin L (Homo sapiens, UniProt P07711); assay: Inhibitory activity against cathepsin L (fluorescence, carbobenzoxy-L-phenylalanyl-L-arginine-4-methylcoumaryl-7-amide substrate); type: biochemical
Chain of cathepsin L (P07711 114-333, species assumed): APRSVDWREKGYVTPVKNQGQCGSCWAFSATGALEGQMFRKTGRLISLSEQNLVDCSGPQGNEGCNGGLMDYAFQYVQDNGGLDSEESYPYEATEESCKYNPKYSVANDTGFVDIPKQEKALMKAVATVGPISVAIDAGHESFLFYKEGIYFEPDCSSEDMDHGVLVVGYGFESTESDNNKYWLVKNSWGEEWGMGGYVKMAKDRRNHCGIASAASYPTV
Experimental: as §1
The method for assay of inhibitory activity against cathepsin B is as follows. Thus, 0.5 ml of 400 mM sodium phosphate buffer (pH 6.0) containing 8 mM dithiothreitol and 4 mM tetrasodium ethylenediaminetetracetate, 0.8 ml of an enzyme solution containing 5 μM cathepsin B and 0.1% Brij 35 (Wako Pure Chemical Ind.), and 0.2 ml of an aqueous solution of the compound of the invention were preincubated at 40° C. for 10 minutes. Then, 0.5 ml of a 0.1% aqueous solution of dimethyl sulfoxide containing 20 μM carbobenzoxy-L-phenylalanyl-L-arginine-4-methylcoumaryl-7-amide was added and the mixture was incubated at 40° C. for 10 minutes. The enzymatic reaction was then stopped by adding 2.0 ml of 100 mM sodium acetate buffer (pH 4.3) containing 100 mM sodium monochloroacetate. The intensity of fluorescence (F) was determined at an exciting wavelength of 350 nm and an emission wavelength of 458 nm. As a control, 0.2 ml of water was added in lieu of 0.2 ml of said aqueous solution of the compound of the invention and the intensity of fluorescence (F0) at 458 nm was similarly measured. The enzyme inhibitory activity was calculated by means of the following formula.
(§3) Enzyme inhibitory activity (%)=F/F0 ×100
The inhibitory activity against cathepsin L was assayed as follows. Thus, except that cathepsin L was used in lieu of cathepsin B at the same concentration and the 400 mM sodium phosphate buffer was adjusted to pH 5.5, the above assay procedure for cathepsin B was otherwise repeated to determine the enzyme inhibitory activity.

[3] = target: chymotrypsin (Bos taurus, UniProt P00766); assay: Inhibitory activity against chymotrypsin (fluorescence, succinyl-L-leucyl-L-leucyl-L-valyl-L-tyrosine-4-methylcoumaryl-7-amide substrate); type: biochemical
Experimental: as §1
(§4) The inhibitory activity against chymotrypsin was assayed in the following manner. Thus, 0.1 ml of 100 mM Tris-HCl buffer (pH 7.5), 0.15 ml of water, 0.01 ml of 5 ng/ml chymotrypsin/water, and 0.04 ml of an aqueous solution of the compound of the invention were preincubated at 37° C. for 5 minutes. Then, 0.1 ml of an aqueous solution containing 100 μM succinyl-L-leucyl-L-leucyl-L-valyl-L-tyrosine-4-methylcoumaryl-7-amide was added and the mixture was incubated at 37° C. for 20 minutes. The enzymatic reaction was stopped by adding 0.5 ml of 100 mM sodium acetate buffer (pH 4.3) containing 100 mM sodium monochloroacetate and the intensity of fluorescence (F) was measured at an exciting wavelength of 350 nm and an emission wavelength of 458 nm. As a control, 0.04 ml of water was added in lieu of 0.04 ml of said aqueous solution of the compound of the invention and the intensity of fluorescence (F0) at 458 nm was similarly measured. The enzyme inhibitory activity was calculated by the following formula.
as §3

[4] = target: T1, trypsin (Bos taurus, UniProt P00760); assay: Inhibitory activity against trypsin (fluorescence, benzoyl-L-leucyl-L-lysyl-arginine-4-methylcoumaryl-7-amide substrate); type: biochemical; conditions: pH 7.5, 37° C., read-out: Enzyme inhibitory activity (%)
T1 sequence (P00760 24-246): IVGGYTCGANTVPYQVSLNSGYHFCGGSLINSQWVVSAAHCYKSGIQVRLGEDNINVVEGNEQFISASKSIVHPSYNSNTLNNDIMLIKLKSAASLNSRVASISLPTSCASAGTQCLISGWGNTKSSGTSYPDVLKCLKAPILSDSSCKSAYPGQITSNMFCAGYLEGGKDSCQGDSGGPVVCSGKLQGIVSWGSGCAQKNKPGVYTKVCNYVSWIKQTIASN
Experimental: as §1, §4, §3
The inhibitory activity against trypsin was measured as follows. Except that trypsin was used in lieu of chymotrypsin at the same concentration and benzoyl-L-leucyl-L-lysyl-arginine-4-methylcoumaryl-7-amide was used in lieu of succinyl-L-leucyl-L-leucyl-L-valyl-L-tyrosine-4-methylcoumaryl-7-amide at the same concentration, the above procedure for assaying the inhibitory activity against chymotrypsin was otherwise repeated and the enzyme inhibitory activity was calculated in the same manner as above.

[5] = target: T2, papain (Carica papaya, UniProt P00784); assay: Assay of papain inhibitory activity; type: biochemical; conditions: used for identification during purification
T2 sequence (P00784 134-345): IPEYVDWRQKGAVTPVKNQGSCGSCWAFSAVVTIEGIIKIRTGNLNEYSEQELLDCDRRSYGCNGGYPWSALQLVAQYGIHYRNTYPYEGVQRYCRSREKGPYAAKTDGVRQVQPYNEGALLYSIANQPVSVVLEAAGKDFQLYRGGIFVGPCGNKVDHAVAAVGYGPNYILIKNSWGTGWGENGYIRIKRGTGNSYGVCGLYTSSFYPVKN
Experimental: Detection of active fractions containing Substance FA-70D in each stage was carried out by the assay of papain inhibitory activity (Biochemical Journal, 201, 189-198, 1982).
Thus, 0.5 ml of 400 mM sodium phosphate buffer (pH 6.8) containing 8 mM dithiothreitol and 4 mM tetrasodium ethylenediaminetetracetate, 0.8 ml of an enzyme solution containing 5 μM papain and 0.1% Brij 35 (polyoxyethylene (23) lauryl ether) (Wako Pure Chemical Ind.), and 0.2 ml of an aqueous solution containing a sample were preincubated at 40° C. for 10 minutes. Then, 0.5 ml of a 0.1% aqueous solution of dimethyl sulfoxide containing 20 μM carbobenzoxy-L-phenylalanyl-L-arginine-4-methylcoumaryl-7-amide was added and the mixture was incubated at 40° C. for 10 minutes. The enzymatic reaction was stopped by adding 2.0 ml of 100 mM sodium acetate buffer (pH 4.3) containing 100 mM sodium monochloroacetate and the intensity of fluorescence (F) was measured at an exciting wavelength of 350 nm and an emission wavelength of 458 nm. As a control, 0.2 ml of water was added in lieu of 0.2 ml of said aqueous solution of the sample and the intensity of fluorescence (F0) at 458 nm was similarly measured. The enzyme inhibitory activity was calculated by means of the following formula.
as §3

[6] = Solubility; type: physicochemical
[7] = tested on: cathepsin series proteases; assay: Inhibition of cathepsin series proteases; type: biochemical
Experimental: as §1, §2

In the case of CC(C)C(NC(=O)C(CCCNC(N)=O)NC(=O)NC(Cc1ccccc1)C(=O)O)C(=O)NC(CO)Cc1ccccc1 (stereo not drawn) [Substance FA-70D] ({Phe-CO}-[Cit]-Val-[Phe(ol)]; configuration not given here), the inhibition at 1 µM ([1]; FA-70D 10^-6 M) is reported as 85.5%, the inhibition at 0.1 µM ([1]; FA-70D 10^-7 M) is reported as 23.7% and the “inhibits cathepsin L more strongly than cathepsin B” value ([2]; cathepsin L vs cathepsin B, Test Example 1) is reported as “inhibits cathepsin L more strongly than cathepsin B”. It also gave an inhibition at 1 µM ([2]; cathepsin L, FA-70D 10^-6 M, pH 5.5, 40° C., read-out: Enzyme inhibitory activity (%)) of 93.5%, an inhibition at 0.1 µM ([2]; cathepsin L, FA-70D 10^-7 M, pH 5.5, 40° C., read-out: Enzyme inhibitory activity (%)) of 72% and an inhibition at 0.01 µM ([2]; cathepsin L, FA-70D 10^-8 M, pH 5.5, 40° C., read-out: Enzyme inhibitory activity (%)) of 15.1%. For the same molecule, the “inhibits chymotrypsin more strongly than trypsin” value ([3]; chymotrypsin vs trypsin, Test Example 1) was “inhibits chymotrypsin more strongly than trypsin”, the inhibition at 1 µM ([3]; chymotrypsin, FA-70D 10^-6 M, pH 7.5, 37° C., read-out: Enzyme inhibitory activity (%)) was 99.9% and the inhibition at 0.1 µM ([3]; chymotrypsin, FA-70D 10^-7 M, pH 7.5, 37° C., read-out: Enzyme inhibitory activity (%)) was 97.6%. For the same molecule, the inhibition at 0.01 µM ([3]; chymotrypsin, FA-70D 10^-8 M, pH 7.5, 37° C., read-out: Enzyme inhibitory activity (%)) was 70.7%, the inhibition at 1 µM ([4]; FA-70D 10^-6 M) was 43.3% and the inhibition at 0.1 µM ([4]; FA-70D 10^-7 M) was 14%. For the same molecule, the inhibition at 0.01 µM ([4]; FA-70D 10^-8 M) was 9.4%, the “enzymatic activity of papain inhibited by the substance” value [5] was “inhibited by the substance” and the Solubility ([6]; in chloroform, acetone, ethyl acetate, ether, and hexane) was “Practically insoluble”. For the same molecule, the Solubility ([6]; in ethanol) was “slightly soluble”, the Solubility ([6]; in methanol and dimethylsulfoxide) was “readily soluble” and the “inhibit cathepsin series proteases” value [7] was “strongly inhibit”.
